26 compounds from patent publication US8962641B2, “Pyrimidine-substituted pyrrolidine derivatives, pharmaceutical compositions and uses thereof” (Boehringer Ingelheim International GmbH, priority 2013, dated 2015) can be followed below.

The assay addresses human ACC2 (Homo sapiens (Human), UniProt O00763). Nature of the assay: ACC2 assay (spectrophotometric 384 well assay, NADH-linked kinetic method). Format: biochemical. The following applies: hACC2 construct lacking 128 N-terminal amino acids; coupled lactate dehydrogenase/pyruvate kinase reaction, 340 nm, 25° C. The protocol: Spectrophotometric 384 Well Assay
Malonyl CoA formation by acetyl CoA carboxylases is stoichometrically linked to the consumption of ATP. ACC2 activity is measured in a NADH-linked kinetic method measuring ADP generated during the ACC reaction using a coupled lactate dehydrogenase/pyruvate kinase reaction.
The protein is then expressed in insect cells using a baculoviral expression system. Protein purification is performed by anion exchange.
All compounds are dissolved in dimethyl sulfoxide (DMSO) to a concentration of 10 mM.
The enzymatic reaction is then started by addition of a mixture of NADH, acetyl Coenzyme A (both 200 μM f.c.) and ATP (500 uM f.c.). The decrease of the optical density (slope S) is then determined at 25° C. at a wavelength of 340 nm over 15 minutes in a spectrophotometric reader.
Each assay microtiter plate contains wells with vehicle instead of compound as controls for the non-inhibited enzyme (100% CTL; ‘HIGH’) and wells without acetyl-CoA as controls for non-specific NADH degradation (0% CTL; ‘LOW’).

SMILES strings stand for the structures.

Chain of human ACC2 (O00763 129-2458): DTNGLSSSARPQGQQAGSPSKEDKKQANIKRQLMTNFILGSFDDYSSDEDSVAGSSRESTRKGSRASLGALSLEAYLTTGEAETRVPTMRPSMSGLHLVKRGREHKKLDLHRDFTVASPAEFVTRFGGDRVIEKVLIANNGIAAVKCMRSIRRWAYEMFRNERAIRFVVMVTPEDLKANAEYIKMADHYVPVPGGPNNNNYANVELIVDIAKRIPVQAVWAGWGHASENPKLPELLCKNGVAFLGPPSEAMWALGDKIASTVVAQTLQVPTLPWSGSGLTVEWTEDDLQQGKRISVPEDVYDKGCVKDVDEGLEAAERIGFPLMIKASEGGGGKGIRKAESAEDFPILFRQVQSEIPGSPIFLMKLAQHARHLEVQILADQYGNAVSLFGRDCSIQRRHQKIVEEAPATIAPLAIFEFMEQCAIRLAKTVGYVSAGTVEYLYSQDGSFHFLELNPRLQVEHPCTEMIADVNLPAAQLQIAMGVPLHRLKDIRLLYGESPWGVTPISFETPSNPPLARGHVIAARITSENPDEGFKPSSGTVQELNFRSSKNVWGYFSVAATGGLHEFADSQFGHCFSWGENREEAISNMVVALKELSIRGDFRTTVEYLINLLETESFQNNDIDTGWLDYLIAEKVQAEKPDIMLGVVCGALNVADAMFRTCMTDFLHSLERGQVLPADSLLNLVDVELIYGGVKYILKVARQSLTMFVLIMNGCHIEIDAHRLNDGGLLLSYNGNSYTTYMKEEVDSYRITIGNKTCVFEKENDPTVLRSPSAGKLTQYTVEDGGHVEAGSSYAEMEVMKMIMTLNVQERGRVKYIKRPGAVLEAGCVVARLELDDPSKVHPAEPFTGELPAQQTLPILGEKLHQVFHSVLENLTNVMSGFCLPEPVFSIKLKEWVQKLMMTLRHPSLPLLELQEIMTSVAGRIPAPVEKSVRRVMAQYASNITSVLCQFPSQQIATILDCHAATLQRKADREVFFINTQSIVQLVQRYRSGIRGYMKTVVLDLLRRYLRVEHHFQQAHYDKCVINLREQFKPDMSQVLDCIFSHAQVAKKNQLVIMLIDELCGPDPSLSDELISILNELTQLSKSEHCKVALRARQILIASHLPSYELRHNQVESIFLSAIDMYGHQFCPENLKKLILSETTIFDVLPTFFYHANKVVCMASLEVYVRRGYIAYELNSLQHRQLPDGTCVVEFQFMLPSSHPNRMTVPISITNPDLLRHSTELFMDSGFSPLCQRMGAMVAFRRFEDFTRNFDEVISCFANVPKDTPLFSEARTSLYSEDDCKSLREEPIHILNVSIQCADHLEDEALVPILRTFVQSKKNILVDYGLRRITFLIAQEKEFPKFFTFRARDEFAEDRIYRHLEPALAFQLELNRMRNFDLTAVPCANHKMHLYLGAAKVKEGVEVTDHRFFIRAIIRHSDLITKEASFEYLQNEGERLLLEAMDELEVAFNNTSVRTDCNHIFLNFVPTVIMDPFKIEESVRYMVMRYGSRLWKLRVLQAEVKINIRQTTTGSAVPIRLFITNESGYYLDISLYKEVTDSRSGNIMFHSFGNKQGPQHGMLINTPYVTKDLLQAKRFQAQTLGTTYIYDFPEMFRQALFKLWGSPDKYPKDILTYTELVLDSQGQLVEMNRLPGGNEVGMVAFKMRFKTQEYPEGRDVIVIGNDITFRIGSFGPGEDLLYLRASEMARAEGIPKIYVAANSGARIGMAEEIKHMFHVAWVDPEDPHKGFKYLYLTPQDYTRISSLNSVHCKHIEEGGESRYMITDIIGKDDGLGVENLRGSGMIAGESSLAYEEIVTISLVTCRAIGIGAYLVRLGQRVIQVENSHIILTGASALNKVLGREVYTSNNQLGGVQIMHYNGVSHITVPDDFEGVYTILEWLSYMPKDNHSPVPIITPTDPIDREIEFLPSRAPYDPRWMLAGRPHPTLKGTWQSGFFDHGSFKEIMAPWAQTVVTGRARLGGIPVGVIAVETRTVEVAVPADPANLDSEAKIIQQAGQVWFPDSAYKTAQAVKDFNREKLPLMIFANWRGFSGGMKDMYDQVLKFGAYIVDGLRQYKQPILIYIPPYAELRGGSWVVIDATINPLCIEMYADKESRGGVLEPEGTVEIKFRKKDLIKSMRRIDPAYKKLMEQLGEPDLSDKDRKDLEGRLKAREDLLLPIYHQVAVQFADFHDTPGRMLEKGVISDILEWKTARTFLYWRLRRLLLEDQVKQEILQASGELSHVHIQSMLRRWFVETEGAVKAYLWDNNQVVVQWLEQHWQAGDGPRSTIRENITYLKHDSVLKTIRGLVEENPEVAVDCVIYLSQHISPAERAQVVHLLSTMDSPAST

Turning to `CC(=O)N[C@@H](C)c1ccc(O[C@@H]2CCN(c3nc(N4CCCOCC4)ncc3F)C2)cc1` [Example 8.216], inhibition was half-maximal at 125 nM (IC50). For `CC(=O)N[C@@H](C)c1ccc(O[C@@H]2CCN(c3nc(N(C)C4CCCC4)ncc3Cl)C2)cc1` [Example 8.124] the value was 111 nM. For `CC(=O)N[C@@H](C)c1ccc(O[C@@H]2CCN(c3ccnc(N(C)C4CC4)n3)C2)cc1` [Example 8.19] the value was 475 nM; for `CC(=O)N[C@@H](C)c1ccc(O[C@@H]2CCN(c3nc(N4CC(C)C4)ncc3Cl)C2)cc1` [Example 8.219], 355 nM.

Consider `COCCN(CC(F)F)c1nccc(N2CC[C@@H](Oc3ccc([C@H](C)NC(C)=O)cc3)C2)n1` [Example 8.83], for which inhibition was half-maximal at 165 nM (IC50).

Compound `CC(=O)N[C@@H](C)c1ccc(O[C@@H]2CCN(c3ncnc(NCC4(O)CC4)c3Cl)C2)cc1` [Example 8.305] had an IC50 of 176 nM. For `CC(=O)N[C@@H](C)c1ccc(O[C@@H]2CCN(c3nc(N4CCC(F)(F)CC4)ncc3F)C2)cc1` [Example 8.261] the value was 96 nM. Compound `CC(=O)N[C@@H](C)c1ccc(O[C@@H]2CCN(c3nccc(N4CCC(C)(C)C4)n3)C2)cc1` [Example 8.81] came in with an IC50 of 970 nM.

Compound `CC(=O)N[C@@H](C)c1ccc(O[C@@H]2CCN(c3ncnc(N(C)C4CC4)c3F)C2)cc1` [Example 8.133] displayed an IC50 of 299 nM. `CCNC(=O)N[C@@H](C)c1ccc(OC2CCN(c3ccnc(N4CCOCC4)n3)C2)cc1` (some centres unmarked) [Example 3.3] gave an IC50 of 445 nM. For `CC(=O)N[C@@H](C)c1ccc(O[C@@H]2CCN(c3nc(N4CCCC(F)(F)C4)ncc3F)C2)cc1` [Example 8.218] the value was 140 nM. For the compound `CC(=O)N[C@@H](C)c1ccc(O[C@@H]2CCN(c3ncnc(N4CC(C)(O)C4)c3F)C2)cc1` [Example 8.237], the midpoint of inhibition, the IC50, lay at 749 nM. For `CC(=O)N[C@@H](C)c1ccc(O[C@@H]2CCN(c3ncnc(N4CC(F)(F)C4)c3Cl)C2)cc1` [Example 8.111] the value was 116 nM; for `C[C@H](NC(=O)N(C)C)c1ccc(O[C@@H]2CCN(c3ncnc(OCC(C)(F)F)c3F)C2)cc1` [Example 3.19], 155 nM; for `CC(=O)N[C@@H](C)c1ccc(O[C@@H]2CCN(c3nc(N4CCC(C)(O)C4)ncc3Cl)C2)cc1` (some centres unmarked) [Example 8.256], 303 nM. The compound `CC(=O)N[C@@H](C)c1ccc(O[C@@H]2CCN(c3ncc(OC[C@H]4CC4(F)F)cn3)C2)cc1` [Example 6.26] came in with an IC50 of 120 nM.

`CC(=O)N[C@@H](C)c1ccc(O[C@@H]2CCN(c3nc(N4CC(F)(F)C4)ncc3Cl)C2)cc1` [Example 8.289]: the half-inhibitory concentration (IC50) was found to be 484 nM. For `CC(=O)N[C@@H](C)c1ccc(O[C@@H]2CCN(c3ncnc(N(C)C4CCC4)c3F)C2)cc1` [Example 8.232] the value was 60 nM. For `COCCCN(C)c1ncc(F)c(N2CC[C@@H](Oc3ccc([C@H](C)NC(C)=O)cc3)C2)n1` [Example 8.167] the value was 101 nM. `CCCOc1ncnc(N2CC[C@@H](Oc3ccc([C@H](C)NC(C)=O)cc3)C2)c1C` [Example 7.23] had an IC50 of 120 nM. On to `CC(=O)N[C@@H](C)c1ccc(O[C@@H]2CCN(c3ncnc(OCCCF)c3F)C2)cc1` [Example 7.31], for which half-maximal inhibition (IC50) was put at 49 nM.

As for `CC(=O)N[C@@H](C)c1ccc(O[C@@H]2CCN(c3ncnc(N4CCC(F)(F)C4)c3Cl)C2)cc1` [Example 8.114], the IC50 is 80 nM.

As to `CC(=O)N[C@@H](C)c1ccc(O[C@@H]2CCN(c3ncnc(N4CCCC4)c3F)C2)cc1` [Example 8.129], the IC50 is 67 nM.

For `CC(=O)N[C@@H](C)c1ccc(O[C@@H]2CCN(c3ccnc(N4CCOCC4(C)C)n3)C2)cc1` [Example 8.86], the IC50 was 670 nM. For `COCC(=O)N[C@@H]1CC[C@H](C(=O)N[C@@H](C)c2ccc(O[C@@H]3CCN(c4ncnc(OCC5CC5)c4F)C3)cc2)C1` [Example 10.2] the value was 174 nM; for `CC(=O)N[C@@H](C)c1ccc(O[C@@H]2CCN(c3nc(N4CC=CC4)ncc3F)C2)cc1` [Example 8.244], 165 nM.

What is called IC50 is the concentration needed to halve the response being measured. A low value points to inhibition by little substance.
